# Like-named read-outs stand apart in the source and are kept apart here. Numbered stars: 1 amine (or outer) side, 2 acyl side, 3 side chain; on linkers, the order of the positions; unused ones are H or OH. Square brackets hold non-standard residues; d marks the D form. Peptide text beside a SMILES is read from it. X1 = CCC(N[*:1])C(C)C(=O)O[C@H](C(=O)[*:2])[C@@H](C)CC; X2 = C[C@H](N[*:1])C(=O)C(C)(C)C(=O)[*:2]; NMeY = CN[C@@H](Cc1ccc(O)cc1)C(=O)O; NMeI = CC[C@H](C)[C@H](NC)C(=O)O; NMeV = CN[C@H](C(=O)O)C(C)C
# Legend:
# [1] = tested on: Phytophthora capsici Ridomil-Sensitive strain; experiment: In vitro agar-dilution test, Ridomil-sensitive strain; format: cell-based; conditions: for Zone of Growth: control zone 27
# Phytophthora infestans [2] = format: in vivo; design: key to Disease Control rating, Tomato Late Blight: 1=severe disease; 5=no disease; conditions: for Disease Control rating, Tomato Late Blight: 1-5 scale, average of two replicates
# Aphanomyces euteiches = experiment: In vitro agar-dilution test; format: cell-based; design: Zone of Growth: unit not given beside the values; conditions: for Zone of Growth: control zone 29
# Protocol: (§1) In these tests 100× solutions of majusculamide C in 95% aqueous ethanol were used. Majusculamide C solution (0.1 ml) and melted agar (9.9 ml) at 50° C. were mixed. An inoculum plug (6-mm diameter) was placed in the center of each plate; the radial growth of the colony was measured. Zone of growth was measured from the edge of the plug to the edge of the colony.
# [3] = tested on: Pythium ultimum Ridomil-resistant strain; experiment: In vitro agar-dilution test, Ridomil-resistant strain; format: cell-based; conditions: for Zone of Growth: control zone 39
# Pythium aphanidermatum = experiment: In vitro agar-dilution test; format: cell-based; design: Zone of Growth: unit not given here
# Protocol: as §1
# [4] = tested on: Phytophthora capsici Ridomil-resistant strain; experiment: In vitro agar-dilution test, Ridomil-resistant strain; format: cell-based; conditions: for Zone of Growth: control zone 28
# [5] = tested on: Pythium ultimum Ridomil-sensitive strain; experiment: In vitro agar-dilution test, Ridomil-sensitive strain; format: cell-based; conditions: for Zone of Growth: control zone 39
# Sclerotinia homoeocarpa = experiment: In vitro agar-dilution test; format: cell-based; conditions: for Percent Inhibition / Zone of Growth: Table 5; for Zone of Growth: control zone 23
# Protocol: as §1
# Rhizoctonia solani = experiment: In vitro agar-dilution test; format: cell-based; conditions: for Percent Inhibition / Zone of Growth: Table 5; for Zone of Growth: control zone 27
# Protocol: as §1
# [6] = tested on: Tomato leaves (C. V. Rutgers); conditions: for Phytotoxicity rating, tomato leaves: average of two replicates
# Phytophthora infestans [7] = format: cell-based; conditions: for Zone of Growth: control zone 12
# Solubility in solvents = format: physicochemical
# [8] = swimmer's itch; Mynderse et al., Science 196, 538-540 (1977); cited from earlier work
# [9] = calculated from Table 9 results
# [10] = calculated from Table 7 results
# [11] = 0.1 ppm, Table 7 experiment, control zone 32
# [12] = 1.0 ppm, Table 7 experiment, control zone 32
# [13] = calculated from Table 5 results
structure (smiles),measurement,setting,value
"CCC1NC(=O)[C@H](C)NC(=O)C(C)(C)C(=O)[C@H](C)NC(=O)[C@H](Cc2ccc(OC)cc2)N(C)C(=O)[C@H](C(C)C)N(C)C(=O)CNC(=O)[C@H]([C@@H](C)CC)N(C)C(=O)CNC(=O)[C@H]([C@@H](C)CC)OC(=O)C1C (some centres unmarked) [Majusculamide C, majusculamide C] (cyclo(A[X1]G[NMeI]G[NMeV][NMeY](Me)[X2]))",Percent Inhibition,[1]; 0.1 ppm,46%
same,Zone of Growth,[1]; 0.1 ppm,14.5
same,Percent Inhibition,[1]; 1 ppm,74%
same,Zone of Growth,[1]; 1 ppm,7
same,Percent Inhibition,[1]; 10 ppm,100%
same,Zone of Growth,[1]; 10 ppm,0
same,ED50,[1]; [9],0.45 ppm
same,"Disease Control rating, Tomato Late Blight",Phytophthora infestans [2]; 6.25 ppm foliar spray,5
same,"Disease Control rating, Tomato Late Blight",Phytophthora infestans [2]; 25 ppm foliar spray,5
same,"Disease Control rating, Tomato Late Blight",Phytophthora infestans [2]; 100 ppm foliar spray,5
same,"Disease Control rating, Tomato Late Blight",Phytophthora infestans [2]; 400 ppm foliar spray,5
same,Control of fungus,"Phytophthora infestans [2]; suitable tests, not specified, tomato late blight",control
same,In vivo effectiveness against tomato late blight,Phytophthora infestans [2]; summary statement,effective
same,Percent Inhibition,Aphanomyces euteiches; 0.01 ppm,7%
same,Zone of Growth,Aphanomyces euteiches; 0.01 ppm,27
same,Percent Inhibition,Aphanomyces euteiches; 0.1 ppm,7%
same,Zone of Growth,Aphanomyces euteiches; 0.1 ppm,27
same,Percent Inhibition,Aphanomyces euteiches; 1.0 ppm,29%
same,Zone of Growth,Aphanomyces euteiches; 1.0 ppm,20.5
same,Percent Inhibition,Aphanomyces euteiches; 10.0 ppm,88%
same,Zone of Growth,Aphanomyces euteiches; 10.0 ppm,3.5
same,ED50,Aphanomyces euteiches; [10],2.1 ppm
same,Percent Inhibition,[3]; 0.1 ppm,60%
same,Zone of Growth,[3]; 0.1 ppm,15.5
same,Percent Inhibition,[3]; 1 ppm,91%
same,Zone of Growth,[3]; 1 ppm,3.5
same,Growth observation (footnote b),[3]; 10 ppm,No growth on plug
same,Percent Inhibition,[3]; 10 ppm,100%
same,Zone of Growth,[3]; 10 ppm,0
same,ED50,[3]; [9],< 0.5 ppm
same,Percent Inhibition,"Pythium aphanidermatum; 0.01 ppm, Table 7 experiment",6%
same,Zone of Growth,"Pythium aphanidermatum; 0.01 ppm, Table 7 experiment, control zone 32",30
same,Percent Inhibition,"Pythium aphanidermatum; 0.1 ppm, Table 7 experiment",62%
same,Zone of Growth,Pythium aphanidermatum; [11],12
same,Percent Inhibition,"Pythium aphanidermatum; 1 ppm, Table 5 experiment",97%
same,Zone of Growth,"Pythium aphanidermatum; 1 ppm, Table 5 experiment, control zone 28",1
same,Percent Inhibition,"Pythium aphanidermatum; 1.0 ppm, Table 7 experiment",95%
same,Zone of Growth,Pythium aphanidermatum; [12],1.5
same,Percent Inhibition,"Pythium aphanidermatum; 10 ppm, Table 5 experiment",100%
same,Zone of Growth,"Pythium aphanidermatum; 10 ppm, Table 5 experiment, control zone 28",0
same,Percent Inhibition,"Pythium aphanidermatum; 10.0 ppm, Table 7 experiment",100%
same,Zone of Growth,"Pythium aphanidermatum; 10.0 ppm, Table 7 experiment, control zone 32",0
same,ED50 (effective dose to achieve 50% inhibition),Pythium aphanidermatum; [13],< 1 ppm
same,ED50,Pythium aphanidermatum; [10],0.07 ppm
same,Percent Inhibition,[4]; 0.1 ppm,48%
same,Zone of Growth,[4]; 0.1 ppm,14.5
same,Percent Inhibition,[4]; 1 ppm,84%
same,Zone of Growth,[4]; 1 ppm,4.5
same,Percent Inhibition,[4]; 10 ppm,98%
same,Zone of Growth,[4]; 10 ppm,0.5
same,ED50,[4]; [9],0.25 ppm
same,Percent Inhibition,[5]; 0.1 ppm,53%
same,Zone of Growth,[5]; 0.1 ppm,18.5
same,Percent Inhibition,[5]; 1 ppm,88%
same,Zone of Growth,[5]; 1 ppm,4.5
same,Percent Inhibition,[5]; 10 ppm,100%
same,Zone of Growth,[5]; 10 ppm,0
same,ED50,[5]; [9],< 0.1 ppm
same,Percent Inhibition,Sclerotinia homoeocarpa; 1 ppm,26%
same,Zone of Growth,Sclerotinia homoeocarpa; 1 ppm,17
same,Percent Inhibition,Sclerotinia homoeocarpa; 10 ppm,30%
same,Zone of Growth,Sclerotinia homoeocarpa; 10 ppm,16
same,ED50 (effective dose to achieve 50% inhibition),Sclerotinia homoeocarpa; [13],> 10 ppm
same,Percent Inhibition,Rhizoctonia solani; 1 ppm,30%
same,Zone of Growth,Rhizoctonia solani; 1 ppm,19
same,Percent Inhibition,Rhizoctonia solani; 10 ppm,63%
same,Zone of Growth,Rhizoctonia solani; 10 ppm,10
same,ED50 (effective dose to achieve 50% inhibition),Rhizoctonia solani; [13],4 ppm
same,Control of fungus,"Rhizoctonia solani; suitable tests, not specified, Rhizoctonia damping-off",control
same,"Phytotoxicity rating, tomato leaves",[6]; 6.25 ppm foliar spray,0
same,"Phytotoxicity rating, tomato leaves",[6]; 25 ppm foliar spray,0
same,"Phytotoxicity rating, tomato leaves",[6]; 100 ppm foliar spray,3.5
same,"Phytotoxicity observation, tomato leaves (footnote b)",[6]; 400 and 100 ppm foliar spray,Evidence of chlorosis
same,"Phytotoxicity rating, tomato leaves",[6]; 400 ppm foliar spray,4
same,Percent Inhibition,Phytophthora infestans [7]; 0.01 ppm,17%
same,Zone of Growth,Phytophthora infestans [7]; 0.01 ppm,10
same,Percent Inhibition,Phytophthora infestans [7]; 0.1 ppm,42%
same,Zone of Growth,Phytophthora infestans [7]; 0.1 ppm,7
same,Percent Inhibition,Phytophthora infestans [7]; 1.0 ppm,46%
same,Zone of Growth,Phytophthora infestans [7]; 1.0 ppm,6.5
same,Percent Inhibition,Phytophthora infestans [7]; 10.0 ppm,100%
same,Zone of Growth,Phytophthora infestans [7]; 10.0 ppm,0
same,ED50,Phytophthora infestans [7]; [10],1.07 ppm
same,Solubility in organic solvents,"Solubility in solvents; methanol, dichloromethane, and acetone",soluble
same,Solubility in water,Solubility in solvents; water,not soluble
"COCC(=O)N(c1c(C)cccc1C)C(C)C(=O)OC (centres unmarked) [Ridomil (tech.), reference compound]",Percent Inhibition,Aphanomyces euteiches; 0.1 ppm,7%
same,Zone of Growth,Aphanomyces euteiches; 0.1 ppm,27
same,Percent Inhibition,Aphanomyces euteiches; 1.0 ppm,3%
same,Zone of Growth,Aphanomyces euteiches; 1.0 ppm,28
same,Percent Inhibition,"Pythium aphanidermatum; 0.1 ppm, Table 7 experiment",34%
same,Zone of Growth,Pythium aphanidermatum; [11],21
same,Percent Inhibition,"Pythium aphanidermatum; 1.0 ppm, Table 7 experiment",94%
same,Zone of Growth,Pythium aphanidermatum; [12],2
same,Percent Inhibition,Phytophthora infestans [7]; 0.1 ppm,50%
same,Zone of Growth,Phytophthora infestans [7]; 0.1 ppm,6
same,Percent Inhibition,Phytophthora infestans [7]; 1.0 ppm,83%
same,Zone of Growth,Phytophthora infestans [7]; 1.0 ppm,2
CO[C@@H](CC[C@H](C)[C@H]1O[C@@]23C[C@H](OC(=O)C[C@H]([C@@H](C)O)OC(=O)C[C@](O)(O2)[C@H](C)CC3(C)C)[C@@H]1C)c1cccc(O)c1 [debromoaplysiatoxin],Contact dermatitis,[8],causes a severe contact dermatitis

# Source: patent US4342751A (priority 1981, dated 1982)
